According to patent US20250275938A1, “COMPOSITIONS AND METHODS FOR TREATMENT OF CANCER” (SCIROSBIO (FZC), priority 2022, published 2025):

Legend:
TBARS in C6 cells = experiment: TBARS (MDA) assay, C6; type: cell-based, rat; conditions: vs control
Procedure: Determination of TBARS levels. TBARS (thiobarbituric acid reactive substances), by-products of lipid peroxidation, were analyzed by measuring the concentration of malondialdehyde (MDA). The levels of MDA were measured in cell lysates using TBARS assay (Catalog No. 10009055, Cayman Chemical, Ann Arbor, USA). The concentration of lipid peroxides was calculated as an MDA equivalent using the extinction coefficient for the MDA-TBA complex of 1.56×10^5 M−1 cm^−1 at 532 nm.

VEGF = experiment: Immunohistochemistry of tumor sections, VEGF; type: in vivo, rat; conditions: i.p. 7 days; tumor-control 73.58%
Procedure: Immunohistochemistry. For immunohistochemistry (IHC) analysis, 4 μm thick tissue sections were deparaffinized in xylene and hydrated by immersing in a series of graded ethanol concentration (100%, 95%, 75% and 50%). Endogenous peroxidase activity was blocked by incubating sections in 3% H2O2 solution prepared in methanol at room temperature for 10 minutes and were washed with PBS twice for 5 minutes each. Antigen retrieval was performed by immersing the slides in 300 ml of retrieval buffer (10 mM citrate buffer, pH 6.0) for one hour at 100° C. and were rinsed twice in PBS. Sections were then incubated with approximately 100 μl diluted primary antibodies of Ki67 (1:100 dilution, Elabscience, Wuhan, China) and Vascular Endothelial Growth Factor (VEGF) (1:100 dilution, Elabscience, Wuhan, China) for 30 minutes at room temperature. The slides were then washed twice with PBS and were then incubated with approximately 100 μl of diluted secondary antibody (Cat No. E-IR-R213, Elabscience, Wuhan, China) at room temperature for 30 minutes. Slides were then washed in PBS for 5 minutes, followed by incubation with approximately 100 μl diluted Horse Radish Peroxidase (HRP) conjugate for 30 minutes. […] The staining intensities were quantified using IHC Profiler, a plugin in ImageJ software, to determine the H-score (Histo score).

rat brain tissue = experiment: Gene expression (qRT-PCR) in brain tissue of glioma-induced rats; type: in vivo; conditions: i.p. 7 days; vs tumor-control
Procedure: Quantitative RT-PCR analysis of antioxidant enzymes (SOD and CAT), oxidative stress marker (Nrf-2), and apoptosis markers (BCL2 and Caspase-9). Total RNA from all experimental groups was isolated using RNA Express reagent (HiMedia, India) and the respective cDNAs were synthesized using a Hi-c-DNA Synthesis Kit (HiMedia, India). Quantitative RT-PCR was carried out using a CFX 96 thermocycler (Bio-Rad, Hercules, CA) and TB Green Premix Ex Taq 1 (Takara Bio, Otsu, Japan) to detect mRNA. Independent experiments were conducted in triplicate. The cycle threshold (Ct), representing a positive PCR result, is defined as the cycle number at which a sample's fluorescence intensity crossed the threshold automatically determined by the CFX 96.
The relative changes in gene expression were calculated with the 2^−ΔΔCt method, wherein ΔΔCt=(Cttarget gene−Ctβ-actin) sample−([…]) calibrator.
The qPCR analyses were performed to measure the expression levels of genes associated with anti-Warburg effect. The total RNA was extracted from the cell lysates and brain tissues of all the experimental groups using TRIZOL reagent (Takara Bio, Shiga, Japan). Quantitative RT-PCR was carried out using a CFX96 Real Time PCR Detection System (Bio-Rad, California, USA) and TB Green Premix Ex Taq I (Takara Bio, Shiga, Japan) to detect messenger ribonucleic acid (mRNA). […]

[1] = LC/MS of drugs and active metabolites in plasma and brain (blood brain barrier); type: in vivo, rat
Procedure: T, M & E (Sigma Aldrich, St. Louis, USA) were dissolved in sterile water and administered intra peritoneally for 7 days (from day 21 to day 27; where the day of tumor induction is considered day 0) to a rat with the dose specified in Table-4 (TME: 50+80+150 mg/kg body weight). After 7 days of treatment (on day 28), blood (plasma) was collected and the rat was euthanized, immediately the brain tissue was collected and stored at −80° C. The brain tissue was then processed accordingly to measure active metabolites through LC/MS.
To 100 μl of plasma or brain (0.5 g crushed in 0.5 mL of sterile water), 20 μl of the working internal standard solution was added. The samples were deproteinised with acetonitrile and the supernatant (100 μl) was injected into the chromatographic system. For the brain, as described above, ciprofloxacin solution (20 μl) was added to 100 μl of crushed brain. Then, repeating the plasma sample process, 20 μl of the solution was injected into the chromatographic system.

[2] = triple combination TME 50+80+150 mg/kg i.p. 7 days, NA = not detected

In the case of `O=C(O[C@@H]1Cc2c(O)cc(O)cc2O[C@@H]1c1cc(O)c(O)c(O)c1)c1cc(O)c(O)c(O)c1` [EGCG, [(2R,3R)-5,7-dihydroxy-2-(3,4,5-trihydroxyphenyl)-3,4-dihydro-2H-chromen-3-yl] 3,4,5-trihydroxybenzoate], the TBARS levels (TBARS in C6 cells) is reported as “significantly elevated”, the “cytoplasmic positivity for VEGF (H-score)” value (VEGF) is reported as 44.45% and the “gene expression levels of Nrf-2 and HIF-1α” value (rat brain tissue) is reported as “reduced expression”. The “transport across the blood brain barrier, in words” value ([1]; administered individually and in combination) was “crossed the BBB in its native form”, the “Detected mass in LC-MS Brain” value ([1]; individually treated T, M and E, i.p. 7 days, NA = not detected) was 466.11 and the “Detected mass in LC-MS Brain” value [1, 2] was 456.11. For the same molecule, the “Detected mass in LC-MS Plasma” value [1, 2] was 452.91.
